Measurements taken from PMC9944328 (Nature Communications, 2023).
Like-named read-outs stand apart in the source and are kept apart here.

System: SSTR2 mutants
Test: NanoBiT β-arrestin 1 recruitment assay, HEK293 (SSTR2 mutants);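 as to Emax: percent of the maximal wild-type SSTR2 response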;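 as to Top: percent of maximal wild-type response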
Format: cell-based, human
Parameters: Bottom / Span / Bottom (best-fit) / Span (best-fit) / Best-fit values Bottom / Best-fit values Span / Bottom (best-fit value) / Span (best-fit value):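 percent of maximal wild-type response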
Settings: for EC50: read-out: EC50
Description: The NanoBiT β-arrestin 1 recruitment assays were carried out according to the method described previously. […] Human full-length SSTR wild-type and mutant vectors were C-terminally fused with a 15-amino acid flexible linker and the small fragment (SmBiT). HEK293 cells were seeded into six-well microplates at a density of 1.0 × 10^6 cells/well and cultured for 24 h at 37 °C with 5% CO2. After that, cells were co-transfected with pcDNA3.1+ vectors encoding SSTR wild-type or mutants and human β-arrestin 1. After transfecting for 24 h, the transfected cells were suspended and seeded into white 96-well plates, and then cultured at 37 °C overnight. After that the medium in each well was exchanged for 90 μl of 0.01% bovine serum albumin containing 20 μl of 50 μM coelenterazine h (Carbosynth) diluted in the HBSS assay buffer and incubated for 40 min at room temperature. Then, ligands diluted in the assay buffer was added to each well and the luminescence intensity was measured using the Synergy H1 microplate reader and detected at room temperature in a time period. All data presented are means of at least three independent experiments.

[1] = β-arrestin recruitment, SSTR2 F127(3.37)A, n=3
[2] = β-arrestin recruitment, SSTR2 I195(45.52)A, n=3, ND = not detected
[3] = β-arrestin recruitment, SSTR2 I284ECL3A, n=3
[4] = β-arrestin recruitment, SSTR2 L290(7.31)A, n=3
[5] = β-arrestin recruitment, SSTR2 P286ECL3A, n=3
[6] = β-arrestin recruitment, SSTR2 S279(6.58)A, n=3
[7] = β-arrestin recruitment, SSTR2 S285ECL3A, n=3
[8] = β-arrestin recruitment, SSTR2 T287ECL3A, n=3
[9] = β-arrestin recruitment, SSTR2 V103(2.64)A, n=3, ND = not detected
[10] = β-arrestin recruitment, SSTR2 W188ECL3A, n=3
[11] = β-arrestin recruitment, SSTR2 W269(6.48)A, n=3
[12] = β-arrestin recruitment, SSTR2 Y50(1.39)A, n=3
[13] = β-arrestin recruitment, SSTR2 Y205(5.35)A, n=3
[14] = β-arrestin recruitment, SSTR2 Y302(7.43)A, n=3

## C[C@@H](O)[C@@H]1NC(=O)[C@H](CCCCN)NC(=O)[C@@H](Cc2c[nH]c3ccccc23)NC(=O)[C@H](Cc2ccccc2)NC(=O)[C@@H](NC(=O)[C@H](N)Cc2ccccc2)CSSC[C@@H](C(=O)N[C@H](CO)[C@@H](C)O)NC1=O [octreotide]
best-fit, S285A-3
  Bottom: 9.309
  LogEC50: -8.736
  Span: 80.53
  Top: 89.84
  EC50: 1.84 nM
best-fit, T194A-1
  Bottom: -0.5401
  Top: 55.89
best-fit, T194A-2
  Bottom: -0.9576
  Top: 54.95
best-fit, T194A-3
  Bottom: -0.591
  Top: 56.22
best-fit, T287A-1
  Bottom: 4.198
  LogEC50: -8.213
  Span: 84.87
  Top: 89.07
  EC50: 6.12 nM
best-fit, T287A-2
  Bottom: 5.592
  LogEC50: -8.324
  Span: 86.73
  Top: 92.33
  EC50: 4.75 nM
best-fit, T287A-3
  Bottom: 0.1327
  LogEC50: -8.522
  Span: 80.53
  Top: 80.66
  EC50: 3 nM
best-fit, W188A-1
  LogEC50: -8.611
  Span: 57.05
  Top: 61.7
  EC50: 2.45 nM
best-fit, W188A-2
  Bottom: 0.0794
  LogEC50: -8.245
  Span: 81.84
  Top: 81.92
  EC50: 5.69 nM
best-fit, W188A-3
  Bottom: 6.02
  LogEC50: -8.295
  Span: 58.94
  Top: 64.96
  EC50: 5.07 nM
β-arrestin recruitment, I130A, earlier manuscript version quoted by reviewer, superseded
  Emax: 60%
β-arrestin recruitment, SSTR2 D295(7.36)A, detected at 10 μM, n=3
  Emax: 119.20±34.68 %WT
β-arrestin recruitment, SSTR2 D295(7.36)A, n=3
  EC50: 319 ± 6.78 nM
[1]
  Emax: 52.62±2.57 %WT
  EC50: 4.33 ± 1.53 nM
β-arrestin recruitment, SSTR2 F208(5.38)A, n=3
  Emax: 75.93±9.81 %WT
β-arrestin recruitment, SSTR2 F208(5.38)A, n=3, ND = not detected
  EC50: 163 ± 6.17 nM
β-arrestin recruitment, SSTR2 F265(6.44)A, detected at 10 μM, n=3 octreotide, 4 paltusotine
  Emax: 67.17±9.75 %WT
β-arrestin recruitment, SSTR2 I130(3.40)A, detected at 10 μM, n=3
  Emax: 76.52±9.52 %WT
[2]
  Emax: 59.10±0.47 %WT
  EC50: 54.3 ± 4.1 nM
[3]
  Emax: 89.03±9.00 %WT
  EC50: 55.7 ± 2.03 nM
β-arrestin recruitment, SSTR2 L99(2.60)A, n=3
  Emax: 96.13±25.27 %WT
β-arrestin recruitment, SSTR2 L99(2.60)A, n=3, ND = not detected
  EC50: 91.6 ± 3.34 nM
[4]
  Emax: 85.66±1.04 %WT
  EC50: 1.8 nM
β-arrestin recruitment, SSTR2 P220(5.50)A, n=3
  Emax: 61.16±16.24 %WT
β-arrestin recruitment, SSTR2 P220(5.50)A, n=3 octreotide, 4 paltusotine, ND = not detected
  EC50: 99.8 ± 9 nM
[5]
  Emax: 76.51±12.11 %WT
  EC50: 6.35 ± 1.59 nM
β-arrestin recruitment, SSTR2 Q102(2.63)A, detected at 10 μM, n=3
  Emax: 57.95±5.20 %WT
[6]
  Emax: 87.86±7.76 %WT
  EC50: 11.9 ± 4.76 nM
[7]
  Emax: 79.09±5.45 %WT
  EC50: 0.84 nM
β-arrestin recruitment, SSTR2 T194(45.51)A, n=3
  Emax: 55.69±0.38 %WT
β-arrestin recruitment, SSTR2 T194(45.51)A, n=3, ND = not detected
  EC50: 48.7 ± 3.38 nM
[8]
  Emax: 87.90±2.95 %WT
  EC50: 4.71 ± 8.35 nM
[9]
  Emax: 84.83±0.26 %WT
  EC50: 63.7 ± 5.11 nM
[10]
  Emax: 69.46±6.21 %WT
  EC50: 4.34 ± 9.5 nM
[11]
  Emax: 33.36±2.81 %WT
  EC50: 55.3 ± 1.35 nM
[12]
  Emax: 61.91±5.26 %WT
  EC50: 4.87 ± 3.17 nM
[13]
  Emax: 108.30±13.91 %WT
  EC50: 8.52 ± 5.74 nM
[14]
  Emax: 109.40±18.82 %WT
  EC50: 1.82 nM
